In patent publication US5057427A, “Method for resolution of stereoisomers” (Sepracor, Inc., priority 1988, dated 1991):
Structures can show the parent of a compound that is named as a salt. Each block holds one compound with its values, some of them ahead of it.

Legend:
[1] = molecular target: T1, Protease VIII: "Subtilopeptidase A" (subtilisin Carlsberg) (Enzyme B) (Bacillus licheniformis, UniProt P00780); assay: Homogeneous aqueous enzymatic resolution (ester hydrolysis) with Enzyme B; format: biochemical; conditions: for % e.e.: acid product
T1 sequence (P00780 106-379): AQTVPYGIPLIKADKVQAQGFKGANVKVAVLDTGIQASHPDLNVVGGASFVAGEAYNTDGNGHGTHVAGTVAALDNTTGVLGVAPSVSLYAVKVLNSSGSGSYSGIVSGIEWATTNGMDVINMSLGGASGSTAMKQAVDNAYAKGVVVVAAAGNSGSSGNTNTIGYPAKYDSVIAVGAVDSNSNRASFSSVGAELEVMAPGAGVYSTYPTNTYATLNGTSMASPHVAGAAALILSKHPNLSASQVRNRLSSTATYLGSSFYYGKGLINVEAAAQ

[2] = system: Protease XXIII: from Aspergillus oryzae (Enzyme A); assay: Homogeneous aqueous enzymatic resolution (ester hydrolysis) with Enzyme A; conditions: for % e.e.: acid product
Protocol: 10.0 millimole (mmol) of ibuprofen substrate ester 1 (the methyl sulfonate derivative) was dissolved in 100 ml of 0.2 M phosphate buffer of the appropriate cation (sodium or potassium, to be the same as the substrate counterion) at pH 7.0. 100 mg of enzyme A, as the
commercial preparation, was added directly to this solution, and the reaction mixture was capped and then shaken briefly until all the enzyme preparation had dispersed or dissolved. The reaction mixture was then allowed to stand at ambient temperature (20°-22° C.) for 20 hours. […] The combined organic layers were backwashed twice with one volume of water, once with one volume of saturated NaCl solution, and then dried over MgSO4.
Evaporation of the ether under reduced pressure left the resolved ibuprofen acid product; no other purification was performed. The optical rotation was measured in EtOH at a concentration c=1.0 for the ibuprofen acid product.
In this Example, 0.010 mol of ibuprofen ester 3 (the propyl sulfonate derivative) was dissolved in 100 ml 0.2 M sodium phosphate buffer at pH 7.8, and 150 mg of the commercial enzyme A preparation was added. The reaction was then handled as described for Examples 6.2.1.1-6.2.1.7.
In this Example, 0.010 mol of ibuprofen ester 2 (the ethyl sulfonate ester in the form of its potassium salt) were dissolved in 125 ml of 0.2 M sodium phosphate buffer at pH 7.0, and 150 mg of enzyme A was added to the reaction mixture as the commercially supplied preparation. The reaction was allowed to proceed for 18 hours, and the resulting product mixture was then worked-up as described above for Examples 6.2.1.1-6.2.1.7.
150 mg of Protease XXIII (A), as the commercially available preparation, was added to the reaction mixture, the reaction vessel was capped, and the entire heterogeneous reaction mixture was shaken in a wrist-action shaker for 18 hours. […] This mixture was then extracted twice with 200 ml of diethyl ether. The combined organic layers were backwashed twice with one volume of water, once with one volume of saturated NaCl, and the organic phase was then dried over MgSO4. Evaporation of the ether under reduced pressure left the resolved naproxen acid. No further purification was performed. The optical rotation of the product was measured in CHCl3 at a concentration c=1.0.
0.010 mol of naproxen ester 8 (the potassium salt of the ethyl sulfonate ester) was dispersed in 125 ml of 0.2 M sodium phosphate buffer at pH 7.8. 150 mg of enzyme A, as the commercially available preparation, were added, and the reaction handled as described in Example 6.2.1.1.
0.010 mol of ibuprofen ester 6 (the compound) were dissolved in 100 ml of 0.2 M sodium phosphate buffer at pH 7.0. 100 mg of enzyme A was added as the commercially available preparation, and the reaction handled as described above in Examples 6.2.1.1-6.2.1.7.
2.0 gm (0.0058 mole) of naproxen ester 9 (the sulfomethyl compound) was dissolved in 400 ml of 50 mM sodium phosphate buffer at pH 7.5. To the reaction were added 100 mg of Protease XXIII (A) as the commercially available preparation. After the enzyme had dissolved, the reaction mixture was incubated at 25 degrees for 16 hours. The reaction mixture was then acidified to pH 1-2 by the careful dropwise addition of concentrated HCl, and then it was extracted with ether (3×150 ml). The aqueous layer was retained. The combined organic layers were backwashed with water (2×100 ml), and these aqueous washings were added to the previously retained aqueous layer of the reaction. The ether layer was then washed once with 100 ml of brine, and dried over MgSO4.

[3] = molecular target: T2, Protease XXVII: "Nagarse" (Enzyme D) (Bacillus amyloliquefaciens, UniProt P00782); assay: Homogeneous aqueous enzymatic resolution (ester hydrolysis) with Enzyme D; format: biochemical; conditions: 150 mg enzyme D, 0.010 mol ester in 100 ml 0.2 M sodium phosphate buffer pH 7.8
T2 sequence (P00782 108-382): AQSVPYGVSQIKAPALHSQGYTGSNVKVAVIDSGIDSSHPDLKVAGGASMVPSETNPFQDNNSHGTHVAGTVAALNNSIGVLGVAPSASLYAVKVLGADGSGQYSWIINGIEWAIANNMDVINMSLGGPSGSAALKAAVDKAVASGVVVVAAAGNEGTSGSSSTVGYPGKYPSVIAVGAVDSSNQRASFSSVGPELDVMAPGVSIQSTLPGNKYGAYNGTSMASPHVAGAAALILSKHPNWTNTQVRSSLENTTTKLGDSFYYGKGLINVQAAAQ

[4] = system: Pig Liver Esterase (E); assay: Homogeneous aqueous enzymatic resolution (ester hydrolysis) with Enzyme E; format: biochemical; conditions: 30 mg Pig Liver Esterase (E), 0.010 mol ester in 100 ml 0.2 M sodium phosphate buffer pH 7.8
[5] = molecular target: T3, Protease XVI: from Bacillus subtilis (Enzyme C) (Bacillus subtilis, UniProt P04189); assay: Homogeneous aqueous enzymatic resolution (ester hydrolysis) with Enzyme C; format: biochemical; conditions: acid product; 100 mg enzyme C, 10 mmol ester in 100 ml 0.2 M phosphate buffer pH 7.0, 20-22° C., 20 hours
T3 sequence (P04189 107-381): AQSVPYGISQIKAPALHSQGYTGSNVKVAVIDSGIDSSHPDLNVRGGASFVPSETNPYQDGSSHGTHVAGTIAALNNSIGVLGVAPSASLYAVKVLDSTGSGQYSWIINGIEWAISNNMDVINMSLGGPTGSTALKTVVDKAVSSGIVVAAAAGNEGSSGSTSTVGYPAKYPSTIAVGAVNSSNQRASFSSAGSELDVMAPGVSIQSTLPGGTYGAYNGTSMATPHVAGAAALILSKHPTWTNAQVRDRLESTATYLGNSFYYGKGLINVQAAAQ

[6] = system: protease Prozyme 6 (Enzyme F); assay: Homogeneous aqueous enzymatic resolution (ester hydrolysis) with Enzyme F; format: biochemical, Asperqillus oryzae; conditions: 100 mg Prozyme 6 (F), 10 mmol ester in 100 ml 0.2 M buffer pH 7.0, 25° C., 18 hours
Protocol: (Prozyme 6) (F) added. The enzymatic reaction mixtures were capped and briefly shaken until all the substrate had dissolved, and the enzyme had completely dissolved or dispersed. […] Evaporation of the ether left a white solid. Rotations were measured at c=1 in CHCl3.
The enzymatic reaction mixtures were capped and briefly shaken until all the substrate had dissolved, and the enzyme had completely dissolved or dispersed. […] Evaporation of the ether left a white solid. Rotations were measured at c=1 in CHCl3.
The reaction was started by adding 100 mg of the protease (F) from the fungus Asperqillus oryzae (from Amano Enzyme Corporation, Prozyme 6, 60,000 units per mg of solid).
After 20 hours at room temperature, the solution was acidified to pH 2 and extracted with 3 volumes of diethyl ether. The aqueous phase was saved for subsequent workup. The ether phase was washed with two volumes of distilled water and then one volume of saturated sodium chloride, and then it was dried over MgSO4 and subsequently evaporated to dryness. The resolved ibuprofen product recovered was 930 mg of white powder, indicating 45% conversion of racemic ester to acid. The optical rotation was -0.580° (measured at c=1 in ethanol), indicating the R isomer of ibuprofen.
35 mg of protease Enzyme F, as the commercial preparation Prozyme 6, were added to the aqueous solution. The reaction flask was capped, and briefly shaken until all the enzyme had dissolved or dispersed. […] The resulting mixture was diluted with one volume of water and was extracted with diethyl ether (2 times 200 ml). The ether layers were combined and backwashed with water (2 times 200 ml), saturated NaCl solution (200 ml), and then dried over MgSO4.
In this control run, a 0.5 M ester solution of (1) was prepared in 325 ml of 0.1 M sodium phosphate buffer (pH 7.0). The reaction was started by adding 3 gm of the above enzyme (F). The pH was controlled at 7.0 with 8.22 M sodium hydroxide. After 6.49 hours at 30° C., 6.63 ml of hydroxide were added, indicating 37.7% conversion. […]

[7] = cited from earlier work
[8] = 100 mg enzyme B, 10.0 mmol ester in 100 ml 0.2 M Na3 PO4 buffer pH 7.0, 25° C., 18 hours
[9] = 100 mg enzyme A, 10.0 mmol ester in 100 ml 0.2 M buffer pH 7.0, 25° C., 18 hours
[10] = 100 mg enzyme A, 10 mmol ester in 100 ml 0.2 M phosphate buffer pH 7.0, 20-22° C., 20 hours
[11] = 150 mg enzyme B, 0.010 mol ester in 100 ml 0.2 M sodium phosphate buffer pH 7.8
[12] = 150 mg enzyme A, 0.010 mol ester in 100 ml 0.2 M sodium phosphate buffer pH 7.8
[13] = 100 mg enzyme B, 10 mmol ester in 100 ml 0.2 M phosphate buffer pH 7.0, 20-22° C., 20 hours
[14] = 100 mg Protease XXIII (A), pH 7.5, 25 degrees, 16 hours

SMILES: CC(C)Cc1ccc(C(C)C(=O)OCCS(=O)(=O)O)cc1 (centres unmarked) [Compound 2, Sodium Salt of 2-Sulfoethyl Ester of 2-(4-Isobutylphenyl)propanoic Acid]
% CONVERSION [2, 10]: 22.3%
% e.e. [2, 10]: 93.3%

SMILES: CC(C)Cc1ccc(C(C)C(=O)OCCCS(=O)(=O)O)cc1 (centres unmarked) [Compound 3, Potassium Salt of 3-Sulfopropyl Ester of 2-(4-Isobutylphenyl)propanoic Acid]
% CONVERSION [1, 11]: 36.4%
% e.e. [1, 11]: 98.6%
% CONVERSION [3]: 32.0%
% e.e. ([3]; acid product): 91.0%
% CONVERSION [4]: 12.1%
% e.e. ([4]; acid product): 88.0%
% CONVERSION [2, 10]: 50.0%
% CONVERSION [2, 12]: 47.1%
conversion of the racemic ester to acid ([2]; 1.00 gm protease (A), about 1 M ester, 40 ml, pH 7.0, room temperature, 23.9 hours, by NaOH titration): 29%
% e.e. [2, 10]: 84.2%
% e.e. [2, 12]: 97.7%

SMILES: CC(C)Cc1ccc(C(C)C(=O)OCCCCS(=O)(=O)O)cc1 (centres unmarked) [Compound 4, Potassium Salt of 4-Sulfobutyl Ester of 2-(4-Isobutylphenyl)propanoic Acid]
% CONVERSION [1, 13]: 20.0%
% e.e. [1, 13]: 92.1%
% e.e. [5]: 61.7%
% CONVERSION [2, 10]: 43.2%
% e.e. [2, 10]: 97.4%

SMILES: COc1ccc2cc(C(C)C(=O)OCC[N+](C)(C)C)ccc2c1 (centres unmarked) [Compound 11, Methyl Sulfate Salt of 2-(N,N,N-Trimethylammonium)ethyl Ester of 2-(6-Methoxy-2-naphthyl)propanoic Acid]
% e.e. ([6]; acid product): 34.0%

SMILES: COc1ccc2cc(C(C)C(=O)OCCC[N+](C)(C)C)ccc2c1 (centres unmarked) [Compound 12, Methyl Sulfate Salt of 3-(N,N,N-Trimethylammonium)propyl Ester of 2-(6-Methoxy-2-naphthyl)propanoic Acid]
% CONVERSION [6]: 34.0%

SMILES: O=C1CCC(N2C(=O)c3ccccc3C2=O)C(=O)N1 [D-enantiomer of thalidomide, thalidomide]
sedative use ([7]; prescribed for the control of morning sickness during pregnancy): safe and effective sedative

SMILES: O=C1CC[C@H](N2C(=O)c3ccccc3C2=O)C(=O)N1 [L-thalidomide]
teratogenicity ([7]; in vivo): potent teratogen

Further lines, results first:

% CONVERSION [1, 8]: 26%
% e.e. [1, 8]: 10%
% CONVERSION [2, 9]: 53%
% e.e. [2, 9]: 3%
SMILES: CC(CSC(=O)c1ccccc1)C(=O)OCS(=O)(=O)O (racemic) [Compound 16, Potassium Salt of the Sulfomethyl Ester of (+)-S-3-Benzoylthio-2-methylpropanoic Acid]

% e.e. [5]: 75.6%
SMILES: CC(C)Cc1ccc(C(C)C(=O)OCCOP(=O)(O)O)cc1 (centres unmarked) [Compound 5, Disodium Salt of the Phosphoric Acid Ester of the 2-Hydroxyethyl Ester of 2-(4-Isobutylphenyl)propanoic Acid]

% CONVERSION [2, 10]: 24.3%
% e.e. [2, 10]: 96.5%
SMILES: CC(C)Cc1ccc(C(C)C(=O)OCCCOS(=O)(=O)O)cc1 (centres unmarked) [Compound 6, Potassium Salt of the Sulfuric Acid Ester of 3-Hydroxypropyl Ester of 2-(4-Isobutylphenyl)propanoic Acid]

conversion (enzymatic hydrolysis) ([2]; 100 mg Protease XXIII (A), 2.0 gm ester in 400 ml 50 mM sodium phosphate buffer pH 7.5, 25 degrees, 16 hours): 18%
enantiomeric excess of R isomer (acid product) [2, 14]: 61.2%
enantiomeric excess of S isomer (acid from remaining ester after hydrolysis at pH 12) [2, 14]: 45.5%
SMILES: COc1ccc2cc(C(C)C(=O)OCS(=O)(=O)O)ccc2c1 (centres unmarked) [Compound 9, Sodium Salt of Sulfomethyl Ester of 2-(6-Methoxy-2-naphthyl)propanoic Acid]

% CONVERSION [2, 10]: 30.1%
% e.e. [2, 10]: > 99%
SMILES: CC(C)Cc1ccc(C(C)C(=O)OCC[N+](C)(C)C)cc1 (centres unmarked) [Compound 10, Iodide Salt of 2-(N,N,N-Trimethylammonium)ethyl Ester of 2-(4-Isobutylphenyl)propanoic Acid]

conversion as measured by titrimetry (reaction stopped) ([1]; 20 mg subtilisin protease (B), 8.05 gm ester in 300 ml 0.1 M potassium phosphate buffer pH 7.0): 25%
SMILES: CC(Cl)C(=O)OCCCS(=O)(=O)O (centres unmarked) [Compound 13, Potassium Salt of 3-Sulfopropyl Ester of 2-Chloropropanoic Acid]
